pIC50: −log10 of the molar value.
Columns and labels:
mice = assay: Mice formalin test; type: in vivo; conditions: 20 mg/kg p.o. 15 min before formalin; cumulative licking time, late phase 30-40 min, vs control group
Protocol: According to a modified protocol from Rosland et al., (1990) mice were injected subcutaneously (s.c.) with 20 μL of 2.7% solution of formalin into the plantar surface of left hindpaw and placed immediately into clear PVC observation chambers (23×12×13 cm).
The test compound (20 mg/kg) was administered p.o. 15 min before formalin injection in a volume of 10 ml/kg body weight to groups of 10 mice per dose. Control group was treated with vehicle.
Pain behavior was quantified by counting the cumulative licking time (seconds) of the injected paw with formalin. Measurements were taken during the late phase 30-40 min after formalin injection (Tjolsen et al 1992).
The analgesic effect of the compounds was calculated as the % of inhibition of the cumulative licking time respect the control group.

MAO-B = molecular target: T1, MAO-B (Rattus norvegicus, UniProt P19643); assay: In vitro MAO-B enzyme activity assay (radioenzymatic, 14C-phenylethylamine); type: biochemical; conditions: rat brain crude mitochondrial fraction; 30 min preincubation; concentration inhibiting 90% enzyme activity
T1 construct: Membrane preparations (crude mitochondrial fraction); from tissue; host or cells: rat brain, crude mitochondrial fraction
T1 sequence (P19643 1-520): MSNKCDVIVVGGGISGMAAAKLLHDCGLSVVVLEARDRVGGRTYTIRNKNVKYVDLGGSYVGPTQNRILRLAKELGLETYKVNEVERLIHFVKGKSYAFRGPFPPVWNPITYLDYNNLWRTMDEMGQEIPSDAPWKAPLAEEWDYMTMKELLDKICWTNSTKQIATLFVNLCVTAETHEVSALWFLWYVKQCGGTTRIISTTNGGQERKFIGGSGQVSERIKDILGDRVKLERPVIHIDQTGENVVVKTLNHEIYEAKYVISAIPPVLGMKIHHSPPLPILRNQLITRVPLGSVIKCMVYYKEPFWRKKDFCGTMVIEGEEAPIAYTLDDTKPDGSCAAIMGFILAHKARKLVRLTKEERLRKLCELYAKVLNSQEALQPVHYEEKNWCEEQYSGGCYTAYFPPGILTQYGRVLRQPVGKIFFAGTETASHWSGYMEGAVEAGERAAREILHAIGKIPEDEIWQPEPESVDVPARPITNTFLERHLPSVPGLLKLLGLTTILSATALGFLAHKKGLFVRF
Protocol: In Vitro MAO-B Enzyme Activity Assay
Membrane preparations (crude mitochondrial fraction): male Wistar rats (Harlan, Italy-175-200 g) were sacrificed under light anaesthesia and brains were rapidly removed and homogenized in 8 vol. of ice-cold 0.32 M sucrose buffer containing 0.1 M EDTA, pH 7.4. The crude homogenate was centrifuged at 2220 rpm for 10 min and the supernatant recovered. The pellet was homogenized and centrifuged again and the two supernatants were pooled and centrifuged at 9250 rpm for 10 min, +4° C. The pellet was resuspended in fresh buffer and centrifuged at 11250 rpm for 10 min, +4° C. The resulting pellet was stored at −80° C. until use.
In vitro enzyme activity assay: the enzyme activities were assessed with a radioenzymatic assay using the selective substrate ^14C-phenylethylamine (PEA) for MAO-B.
The mitochondrial pellet (500 μg protein) was resuspended in 0.1M phosphate buffer pH 7.4 and 500 μl was added to 50 μl of the test compound or buffer for 30 min at 37° C. (preincubation) then the substrate (50 μl) was added. The incubation was carried out for 10 min at 37° C. (^14C-PEA, 0.5 μM).
The reaction was stopped by adding 0.2 ml HCl or perchloric acid. After centrifugation, the deaminated metabolites were extracted with 3 ml of toluene and the radioactive organic phase measured by liquid scintillation spectrometry at 90% efficiency. Radioactivity in the eluate indicates the production of neutral and acidic metabolites formed as a result of MAO-B activity.
The enzymatic activity was expressed as nmoles of substrate transformed/mg protein/min. The activity of MAO-B in the sample was expressed as a percentage of control activity in the absence of inhibitors after subtraction of appropriate blank values.
The drug inhibition curves were obtained from at least eight different concentrations, each in duplicate (10^−10 to 10^−5 M) and the IC90 values (the drug concentration inhibiting 90% enzyme activity) with confidence intervals determined using linear regression analysis. (aided-computer program).
To reach a significant increase in neurotransmitter levels, MAO-B enzyme activity has to be blocked at least by 90%.

Na channel Nav 1.3 = molecular target: T2, Na channel Nav 1.3 (Homo sapiens, UniProt Q9NY46); assay: Electrophysiological assay, tonic block, two electrodes voltage clamp in Xenopus oocytes; type: cell-based; conditions: depolarized (-40 mV, half max current availability) condition, read-out: Nav 1.3 Dep. Curr IC50
T2 construct: expressed in transfected cells; host or cells: Xenopus laevis oocytes injected with Nav1.3 cRNA
Protocol: Electrophysiological Assay
Experiments for the determination of the tonic block are carried out on isolated Xenopus oocytes expressing the Na channel Nav 1.3. Currents are recorded using the two electrodes voltage clamp (TEVC) technique
The day after the preparation, the oocytes are injected (Drummond Nanoject) with 20 ng Nav1.3 cRNA and maintained in NDE.
Starting from 48 h after the mRNA injection whole cell currents are recorded using a two-microelectrode voltage clamp automated workstation.
Compounds are prepared in stock solutions (20 mM) and dissolved to the final concentrations in the external bath solution.
The current/voltage (I/V) relationship for the Nav1.3 currents expressed in oocytes was first studied in order to determine the membrane potential evoking the maximal activation.
The steady-state inactivation properties of the Nav1.3 currents were then studied in order to determine the membrane potentials for the resting state (Vrest) at which channel availability is maximal (Imax), and the membrane potential for the half maximal inactivation (V ½) producing half of the max current availability (I ½) respectively. This two voltage conditions were then used for the evaluation of the voltage dependence of the tonic block.
Finally a two-step protocol was used to determine the voltage dependence of the block of Nav1.3: the oocytes were clamped at −80 mV, the currents were activated by a 100 ms step pulse to 0 mV (Vtest) from a 3000 ms preconditioning potential at −80 mV (resting, Imax condition) and −40 mV (depolarized, I ½ condition), respectively.
Current amplitudes in the two conditions were recorded in the absence and in the presence of different concentrations of compound (washout was made in between) in order to determine the concentration-inhibition curves and IC50 values for the tonic block in the depolarized (half max current availability) conditions.
The activity on Nav 1.3 sodium channel, expressed as IC50 of the (R)-isomers of this invention and of the comparison compounds is reported in Table I.

N-type calcium channels = molecular target: T3, N-type calcium channels (Homo sapiens, UniProt Q00975); assay: Calcium influx assay (fluorescence, differentiated IMR32 cells with nifedipine); type: cell-based; conditions: 1 μM nifedipine, 100 mM KCl depolarization, read-out: Ca 2+ N-Type IC50
T3 construct: IMR32 preferentially express on the membrane surface N-type calcium channels; endogenous in cells; host or cells: IMR32 human neuroblastoma cells, differentiated with dibutyryl-cAMP and bromodeoxyuridine
Protocol: Under differentiating conditions, IMR32 preferentially express on the membrane surface N-type calcium channels. The remaining L-type calcium channels were blocked using the selective L type blocker, nifedipine. In these experimental conditions, only N type channels can be detected.
IMR32 cells were differentiated using 1 mM dibutyryl-cAMP and 2.5 μM bromodeoxyuridine for 8 days (4 times) in 225 cm^2 flask, then detached, seeded at 200,000 cells/well on 96 polylysine-coated plates and further incubated for 18-24 h in the presence of differentiating buffer before use.
The Ca^2+ Kit Assay (Molecular Devices), based on a fluorescent calcium indicator 485-535 nm wavelength, was used.
Differentiated cells were incubated with dye loading for 30 min at 37° C. then, nifedipine alone (1 μM) or in the presence of w-conotoxin or test compounds were added for further 15 min.
The fluorescence (485-535 nm) was measured before and after (30-40 sec) the automated injection of 100 mM KCl depolarizing solution using a Victor plate reader (Perkin Elmer).
The inhibition curves were calculated from 5 concentrations, each in triplicate, and the IC50 determined using a linear regression analysis.
The activity on N-type Calcium channel, expressed as IC50 of the (R)-isomer of this invention and the comparison compounds is reported in Table I.

T2 sequence (Q9NY46 whole entry): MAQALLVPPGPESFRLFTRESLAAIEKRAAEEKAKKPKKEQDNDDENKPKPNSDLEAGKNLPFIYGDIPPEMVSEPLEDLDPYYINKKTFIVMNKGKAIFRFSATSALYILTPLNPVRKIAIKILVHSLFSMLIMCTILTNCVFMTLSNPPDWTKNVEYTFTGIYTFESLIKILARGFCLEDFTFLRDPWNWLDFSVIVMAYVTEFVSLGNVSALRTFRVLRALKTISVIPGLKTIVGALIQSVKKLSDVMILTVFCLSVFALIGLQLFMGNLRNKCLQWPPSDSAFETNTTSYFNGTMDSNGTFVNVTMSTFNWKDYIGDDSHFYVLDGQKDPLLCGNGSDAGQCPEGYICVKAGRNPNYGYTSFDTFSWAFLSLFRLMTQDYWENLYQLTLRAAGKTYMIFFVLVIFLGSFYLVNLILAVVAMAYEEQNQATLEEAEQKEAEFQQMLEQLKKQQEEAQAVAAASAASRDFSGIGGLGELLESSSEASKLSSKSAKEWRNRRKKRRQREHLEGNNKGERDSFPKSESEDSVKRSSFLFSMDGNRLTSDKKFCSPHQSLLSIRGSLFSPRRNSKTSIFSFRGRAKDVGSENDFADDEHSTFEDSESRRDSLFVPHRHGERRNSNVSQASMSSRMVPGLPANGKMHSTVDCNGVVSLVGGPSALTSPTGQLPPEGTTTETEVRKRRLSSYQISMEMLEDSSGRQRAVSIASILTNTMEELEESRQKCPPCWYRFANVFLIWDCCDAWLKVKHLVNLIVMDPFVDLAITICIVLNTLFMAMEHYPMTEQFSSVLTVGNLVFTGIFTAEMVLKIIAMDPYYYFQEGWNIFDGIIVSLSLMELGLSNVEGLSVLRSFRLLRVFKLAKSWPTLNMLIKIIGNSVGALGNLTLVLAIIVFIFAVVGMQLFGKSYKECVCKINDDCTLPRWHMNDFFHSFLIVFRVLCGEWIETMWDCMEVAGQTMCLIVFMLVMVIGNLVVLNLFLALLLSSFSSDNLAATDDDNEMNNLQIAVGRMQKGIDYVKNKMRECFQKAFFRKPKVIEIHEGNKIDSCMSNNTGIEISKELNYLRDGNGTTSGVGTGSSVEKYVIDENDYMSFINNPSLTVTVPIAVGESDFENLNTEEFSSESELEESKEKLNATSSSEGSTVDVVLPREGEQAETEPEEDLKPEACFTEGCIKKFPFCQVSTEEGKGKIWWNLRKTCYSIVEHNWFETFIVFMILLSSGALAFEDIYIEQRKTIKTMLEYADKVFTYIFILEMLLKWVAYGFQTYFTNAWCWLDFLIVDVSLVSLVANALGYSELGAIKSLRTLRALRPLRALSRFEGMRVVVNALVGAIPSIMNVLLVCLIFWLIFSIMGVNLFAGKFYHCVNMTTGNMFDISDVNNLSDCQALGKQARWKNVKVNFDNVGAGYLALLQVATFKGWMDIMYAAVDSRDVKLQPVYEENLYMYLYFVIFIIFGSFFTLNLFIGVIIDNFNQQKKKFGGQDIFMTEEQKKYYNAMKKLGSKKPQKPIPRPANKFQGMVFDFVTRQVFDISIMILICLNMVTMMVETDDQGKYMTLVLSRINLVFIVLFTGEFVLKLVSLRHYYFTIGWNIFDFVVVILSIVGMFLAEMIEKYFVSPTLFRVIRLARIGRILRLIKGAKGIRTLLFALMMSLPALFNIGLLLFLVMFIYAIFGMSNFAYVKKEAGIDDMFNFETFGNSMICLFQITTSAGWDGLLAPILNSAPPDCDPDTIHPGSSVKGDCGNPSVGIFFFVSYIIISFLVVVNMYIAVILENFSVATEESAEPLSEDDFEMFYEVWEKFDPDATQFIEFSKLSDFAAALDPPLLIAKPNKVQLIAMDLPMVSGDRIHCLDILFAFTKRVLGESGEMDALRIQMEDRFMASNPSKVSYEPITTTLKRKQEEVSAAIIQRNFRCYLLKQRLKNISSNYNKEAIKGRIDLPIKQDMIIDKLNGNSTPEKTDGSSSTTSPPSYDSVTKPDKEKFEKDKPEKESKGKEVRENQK

| IC90 (MAO-B) [µM] | pIC50 (Na channel Nav 1.3) | pIC50 (N-type calcium channels) | Compound | FORMALIN TEST % inibition (mice) [%] |
| --- | --- | --- | --- | --- |
| 1.64 | 4.10 | 4.03 | CC(NCc1ccc(OCc2cccc(Cl)c2)cc1)C(N)=O (single isomer, unassigned; isomer 2) [2-[4-(3-chlorobenzyloxy)benzylamino]-propanamide S isomer, 2-[4-(3-chlorobenzyloxy)benzylamino]-propanamide] | 45 |
| 32.3 | 4.41 | 4.70 | CS(=O)(=O)O.C[C@@H](NCc1ccc(OCc2cccc(Cl)c2)cc1)C(N)=O [2-[4-(3-chlorobenzyloxy)benzylamino]-propanamide R isomer, (R)-2-[4-(3-chlorobenzyloxy)benzylamino]propanamide methanesulfonate] | 39 |

Second part, the compound before the results:

| Compound | IC90 (MAO-B) [µM] | pIC50 (Na channel Nav 1.3) | pIC50 (N-type calcium channels) | FORMALIN TEST % inibition (mice) [%] |
| --- | --- | --- | --- | --- |
| CNC(=O)C(C)NCc1ccc(OCc2ccccc2Cl)cc1 (single isomer, unassigned; isomer 2) [2-[4-(2-chlorobenzyloxy)benzylamino]-N-methyl-propanamide S isomer, 2-[4-(2-chlorobenzyloxy)benzylamino]-N-methyl-propanamide] | 2.8 | 3.68 | 4.52 | 32 |
| CC(NCc1ccc(OCc2ccccc2F)cc1)C(N)=O (single isomer, unassigned; isomer 2) [2-[4-(2-fluorobenzyloxy)benzylamino]-propanamide S isomer, 2-[4-(2-fluorobenzyloxy)benzylamino]-propanamide] | 28.4 | 3.69 | 4.64 | 79 |
| CNC(=O)[C@@H](C)NCc1ccc(OCc2ccccc2Cl)cc1.CS(=O)(=O)O [2-[4-(2-chlorobenzyloxy)benzylamino]-N-methyl-propanamide R isomer, (R)-2-[4-(2-chlorobenzyloxy)benzylamino]-N-methylpropanamide methanesulfonate] | 122 | 4.42 | 5.08 | 49 |
| CS(=O)(=O)O.C[C@@H](NCc1ccc(OCc2ccccc2F)cc1)C(N)=O [2-[4-(2-fluorobenzyloxy)benzylamino]-propanamide R isomer, (R)-2-[4-(2-fluorobenzyloxy)benzylamino]propanamide methanesulfonate] | 2500 | 3.83 | 4.53 | 80 |

— patent US20110184068A1, “USE OF (HALOBENZYLOXY) BENZYLAMINO-PROPANAMIDES FOR THE MANUFACTURE OF MEDICAMENTS ACTIVE AS SODIUM AND/OR CALCIUM CHANNEL SELECTIVE MODULATORS” (Newron Pharmaceuticals S.p.A., priority 2004, published 2011)
